In PubChem BioAssay (NCI):
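Protocol summary: plate cells (96-well), add compound at 5 concentrations, incubate 48 h, interpolate endpoints linearly. TGI marks complete inhibition of growth.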

Experiments:
Assay in all cases: inhibition of tumour cell growth, NCI panel, 48 h
SK-MEL-2 melanoma = test system: SK-MEL-2 melanoma
SK-MEL-28 melanoma = test system: SK-MEL-28 melanoma
SNB-75 CNS = test system: SNB-75 CNS
SN12C renal = test system: SN12C renal
SK-OV-3 ovarian = test system: SK-OV-3 ovarian
SK-MEL-5 melanoma = test system: SK-MEL-5 melanoma
HCT-15 colon = test system: HCT-15 colon
CCRF-CEM leukemia = test system: CCRF-CEM leukemia
U251 CNS = test system: U251 CNS
T-47D breast = test system: T-47D breast
SF-295 CNS = test system: SF-295 CNS
MDA-MB-231 breast = test system: MDA-MB-231 breast
NCI/ADR-RES ovarian = test system: NCI/ADR-RES ovarian
NCI-H226 lung = test system: NCI-H226 lung
NCI-H460 lung = test system: NCI-H460 lung
HL-60(TB) leukemia = test system: HL-60(TB) leukemia
HS 578T breast = test system: HS 578T breast
IGROV1 ovarian = test system: IGROV1 ovarian

SMILES	TGI (SK-MEL-2 melanoma)	TGI (SK-MEL-28 melanoma)	TGI (SNB-75 CNS)	TGI (SN12C renal)	TGI (SK-OV-3 ovarian)	TGI (SK-MEL-5 melanoma)	TGI (HCT-15 colon)	TGI (CCRF-CEM leukemia)	TGI (U251 CNS)	TGI (T-47D breast)	TGI (SF-295 CNS)	TGI (MDA-MB-231 breast)	TGI (NCI/ADR-RES ovarian)	TGI (NCI-H226 lung)	TGI (NCI-H460 lung)	TGI (HL-60(TB) leukemia)	TGI (HS 578T breast)	TGI (IGROV1 ovarian)
C/C(O)=C(/C=N/C(=S)Nc1ccccc1)C(=O)Nc1ccccc1C	> 100 µM	> 100 µM	> 100 µM	> 100 µM	> 100 µM	> 100 µM	> 100 µM	> 100 µM	> 100 µM	> 100 µM	> 100 µM	> 100 µM	> 100 µM	> 100 µM	> 100 µM	> 100 µM	> 100 µM	> 100 µM
O=S(=O)(CC(Cl)c1ccccc1)c1nc2ccccc2s1 (configuration not stated)	37.4 µM	29.7 µM	27.8 µM	30.3 µM	32.9 µM	16.7 µM	21.9 µM	4.28 µM	25.9 µM	41.7 µM	32.6 µM	30.4 µM	49 µM	22.1 µM	52.4 µM	4.43 µM	> 69 µM	24.2 µM
O=C1c2ccccc2CC12Cc1cc3c(cc1C2)CCC3	> 100 µM	> 100 µM	> 100 µM	> 100 µM	> 100 µM	35.8 µM	> 100 µM	> 100 µM	> 100 µM	> 100 µM	> 100 µM	> 100 µM	> 100 µM	> 100 µM	> 100 µM	> 100 µM	> 100 µM	> 100 µM
Cc1nc2ccc(Cl)cc2c2c1CCN2c1ccc(F)cc1	> 100 µM	75.7 µM	9.13 µM	> 100 µM	> 100 µM	21.6 µM	> 100 µM	> 100 µM	> 100 µM	> 100 µM	> 100 µM	81.3 µM	> 100 µM	88.8 µM	> 100 µM	35.3 µM	> 100 µM	72.7 µM
O=C(N/C(=C\c1ccccc1)c1nc2ccccc2c(=O)o1)c1ccccc1	> 100 µM	> 100 µM	> 86.3 µM	> 100 µM	> 100 µM	> 100 µM	> 100 µM	> 100 µM	> 83.3 µM	> 100 µM	> 100 µM	> 71.9 µM	> 100 µM	> 100 µM	> 100 µM	> 100 µM	75.7 µM	> 100 µM
C/C(=C/CC[C@](C)(OC1OC(CO)C(O)C(O)C1O)[C@H]1CC[C@]2(C)[C@@H]1CC[C@@H]1[C@@]3(C)CC[C@H](O)C(C)(C)[C@@H]3C[C@H](O)[C@]12CO)CO (some centres not stated)		> 100 µM	> 100 µM	> 100 µM	> 100 µM	> 100 µM	> 100 µM	> 100 µM	> 100 µM	> 100 µM	> 100 µM	> 100 µM	> 100 µM	> 100 µM	> 100 µM	> 100 µM	> 100 µM	> 100 µM
